System: bacterial strain LF82 binding to the glycoprotein BSA-(Mannose)3
Test: Bacterial Binding Assay (BBA)
Type: cell-based, Escherichia coli
Details: read-out: Bacterial Binding Assay IC50, LF82/Luciferase strain binding to BSA-(Man)3 coated plates, luminescence
Text: The purpose of the Bacterial Binding Assay (BBA) is to determine the inhibition activity of
selective FimH antagonists on the bacterial strain LF82 binding to the glycoprotein BSA-(Mannose)3.
Below is a list of the Materials used to run the BBA are described below. • 1. LB broth: Supplier: Gibco, #10855 • 2. D-PBS: Supplier: Wisent, #311-425-CL • 3. LB agar plates • 4. 96-well black plate (high binding): Supplier: Costar, #3925 • 5. TopSeal™-A adhesive sealing films; Supplier PerkinElmer, #6005185 • 6. Carbonate-bicarbonate buffer pH 9.6 tablets, Supplier: Medicago, #09-8922-24 • 7. Water, Supplier: Gibco, #15230-162 • 8. Bovine serum albumin (BSA): Supplier: Sigma, #A-7888 • 9. (Man)3-BSA (α1-3, α1-6 Mannotriose-BSA, 1 mg), V-Labs, #NGP1336, lot #HGDX37-169-1 • 10. Tween 20: Supplier: Sigma, #P9416 • 11. Bright-Glo Luciferase Assay System: Supplier: Promega, #E2610 • 12. LF82/Luciferase strain: Invasive ability of an Escherichia coli strain isolated from the ileal mucosa of a patient with Crohn ? disease. Boudeau J, Glasser A L, Masseret E, Joly B, Darfeuille-Michaud A, Infect Immun. 1999, 67(9), 4499-509
Solutions and buffers used to run the BBA are described below. • 1. 0.04M carbonate-bicarbonate buffer (coating buffer) • 2. 40 μg/mL BSA-(Man)3: Dissolve 1 mg of (Man)3-BSA in 25 mL of water. • 3. 4000 μg/mL BSA • 4. 40 μg/mL BSA • 5. 1 μg/mL BSA-(Man)3: 150 μL of 40 μg/mL BSA-(Man)3+5.85 mL of 40 μg/mL BSA • 6. 0.5 μg/mL BSA-(Man)3 in 0.02M carbonate-bicarbonate buffer. • 7. 20 μg/mL BSA in 0.02M carbonate-bicarbonate buffer • 8. Blocking buffer (2% BSA/DPBS): 1 g of BSA in 50 mL D-PBS • 9. 2× binding buffer (0.2% BSA/D-PBS): 5 mL of blocking buffer+45 mL D-PBS. • 10. Washing buffer (D-PBS/0.01% Tween 20): 10 μL of Tween 20 in 100 mL D-PBS. • 11. 1× Bright-Glo Luciferase substrate: Dilute 1:1 the Bright-Glo Luciferase Assay System with D-PBS The experimental protocol to run the BBA is described below.
Overnight culture of LF82/Luciferase strain: Into two Falcon 50 mL tubes, add 20 mL of LB+20 μL of 50 mg/mL Kanamycin and inoculate with a loop from glycerol stock of the LF82/Luciferase strain. Incubate overnight at 37° C. with no shaking.
Glycoprotein coating of 96-well plates: Add 100 μL/well of 0.5-2 μg/mL BSA-(Man)3. 20 μg/mL BSA is used as the control background. Seal plate using an adhesive sealing film and incubate overnight at room temperature. Wash the 96-well plate three times with 150 μL/well of D-PBS, add 170 μL/well of blocking solution and incubate 45 min (minimum) at room temperature.
Preparation of bacterial suspension: Mix the two cultures tubes (40 mL) and perform a 1:10 dilution in LB (900 μl LB+100 μl culture. Measure optical density (OD) of the bacterial cultures. OD1 ˜5×10^8 cells/mL. Centrifuge LF82 culture for 20 min at 3500 rpm at room temperature. Re-suspend bacterial pellet in D-PBS and centrifuge again for 20 min at 3500 rpm. Re-suspend bacterial pellet in D-PBS to obtain a bacterial concentration of 2×10^9 bacteria/mL. Dilute 1/10 in D-PBS to obtain a final bacterial concentration of 2×10^8 bacteria/mL (=107 bacteria/50 μL). Perform 1/10 serial dilutions in LB of each bacterial suspension, plate 10 μL of dilutions on LB agar plates (final dilutions of 10^−7) and incubate overnight at 37° C. and count CFUs to determine the actual bacteria density in the assay.
Bacterial binding assay: Add 147 μL 2× binding buffer to compound plate (containing 3 μL of compound). After blocking step is performed (at least 45 min), wash plates three times with 200 μL/well of D-PBS. With a 100 μL multichannel manual pipettor, add 50 µL/well of compound diluted in 2× binding buffer. With a 100 μL multichannel manual pipettor, add 50 μL/well of bacterial suspension. Agitate at slow speed for 1 min and incubate 40-75 min at room temperature. Wash 5 times with 150 μL/well of washing buffer and then once with D-PBS. Add 100 μL/well of 1× Bright-Glo Luciferase substrate. […]

Structure (SMILES) | IC50
Cn1c2cc(C#C[C@H]3O[C@H](CO)[C@@H](O)[C@H](O)[C@@H]3O)ccc2c2ccc(C#C[C@H]3O[C@H](CO)[C@@H](O)[C@H](O)[C@@H]3O)cc21 [Compound 112, (2R,3S,4R,5S,6R)-2-(hydroxymethyl)-6-[2-[9-methyl-7-[2-[(2R,3S,4R,5S,6R)-3,4,5-trihydroxy-6-(hydroxymethyl)tetrahydropyran-2-yl]ethynyl]carbazol-2-yl]ethynyl]tetrahydropyran-3,4,5-triol] | 17 nM
OC[C@H]1O[C@H](C#Cc2cc(-c3ccccc3)c(C#C[C@H]3O[C@H](CO)[C@@H](O)[C@H](O)[C@@H]3O)cc2-c2ccccc2)[C@@H](O)[C@@H](O)[C@@H]1O [Compound 81, (2R,3S,4R,5S,6R)-2-[2-[2,5-dipheny1-4[2-[(2R,3S,4R,5S,6R)-3,4,5-trihydroxy-6-(hydroxymethyl)tetrahydropyran-2-yl]ethynyl]phenyl]ethynyl]-6-(hydroxymethyl)tetrahydropyran-3,4,5-triol] | 9 nM
OC[C@H]1O[C@H](c2ccc(-c3cccc(-c4ccc([C@H]5O[C@H](CO)[C@@H](O)[C@H](O)[C@@H]5O)cc4)c3)cc2)[C@@H](O)[C@@H](O)[C@@H]1O [Compound 66] | 34 nM
O=C(c1ccn[nH]1)N1CCC2(CC1)c1cc(C#C[C@H]3O[C@H](CO)[C@@H](O)[C@H](O)[C@@H]3O)ccc1-c1ccc(C#C[C@H]3O[C@H](CO)[C@@H](O)[C@H](O)[C@@H]3O)cc12 [Compound 231] | 0.08 nM
CC(=O)OCC1(COC(C)=O)c2cc(C#C[C@H]3O[C@H](CO)[C@@H](O)[C@H](O)[C@@H]3O)ccc2-c2ccc(C#C[C@H]3O[C@H](CO)[C@@H](O)[C@H](O)[C@@H]3O)cc21 [Compound 211, [9-(acetoxymethyl)-2,7-bis[2-[(2R,3S,4R,5S,6R)-3,4,5-trihydroxy-6-(hydroxymethyl)tetrahydropyran-2-yl]ethynyl]fluoren-9-yl]methyl acetate] | 2.2 nM
COc1cc(C#C[C@H]2O[C@H](CO)[C@@H](O)[C@H](O)[C@@H]2O)ccc1C#C[C@H]1O[C@H](CO)[C@@H](O)[C@H](O)[C@@H]1O [Compound 71] | 28 nM
CN1CCN(CCNC(=O)Cn2c3cc(C#C[C@H]4O[C@H](CO)[C@@H](O)[C@H](O)[C@@H]4O)ccc3c3ccc(C#C[C@H]4O[C@H](CO)[C@@H](O)[C@H](O)[C@@H]4O)cc32)CC1 [Compound 177, 2-[2,7-bis[2-[(2R,3S,4R,5S,6R)-3,4,5-trihydroxy-6-(hydroxymethyl)tetrahydropyran-2-yl]ethynyl]carbazol-9-yl]-N-[2-(4-methylpiperazin-1-yl)ethyl]acetamide] | 0.66 nM
OC[C@H]1O[C@H](C#Cc2ccc3oc4ccc(C#C[C@H]5O[C@H](CO)[C@@H](O)[C@H](O)[C@@H]5O)cc4c3c2)[C@@H](O)[C@@H](O)[C@@H]1O [Compound 106, (2R,3S,4R,5S,6R)-2-(hydroxymethyl)-6-[2-[8-[2-[(2R,3S,4R,5S,6R)-3,4,5-trihydroxy-6-(hydroxymethyl)tetrahydropyran-2-yl]ethynyl]dibenzofuran-2-yl]ethynyl]tetrahydropyran-3,4,5-triol] | 7.9 nM
Cc1cc(-c2ccc(C#C[C@H]3O[C@H](CO)[C@@H](O)[C@H](O)[C@@H]3O)c(C)c2)ccc1C#C[C@H]1O[C@H](CO)[C@@H](O)[C@H](O)[C@@H]1O [Compound 121, (2R,3S,4R,5S,6R)-2-(hydroxymethyl)-6-[2-[2-methyl-4-[3-methyl-4-[2-[(2R,3S,4R,5S,6R)-3,4,5-trihydroxy-6-(hydroxymethyl)tetrahydropyran-2-yl]ethynyl]phenyl]phenyl]ethynyl]tetrahydropyran-3,4,5-triol] | 12 nM
OC[C@H]1O[C@H](C#Cc2ccc(C#C[C@H]3O[C@H](CO)[C@@H](O)[C@H](O)[C@@H]3O)c(Cc3ccccc3)c2)[C@@H](O)[C@@H](O)[C@@H]1O [Compound 158, (2R,3S,4R,5S,6R)-2-[2-[3-benzyl-4-[2-[(2R,3S,4R,5S,6R)-3,4,5-trihydroxy-6-(hydroxymethyl)tetrahydropyran-2-yl]ethynyl]phenyl]ethynyl]-6-(hydroxymethyl)tetrahydropyran-3,4,5-triol] | 11 nM
OCCc1cc(C#C[C@H]2O[C@H](CO)[C@@H](O)[C@H](O)[C@@H]2O)ccc1C#C[C@H]1O[C@H](CO)[C@@H](O)[C@H](O)[C@@H]1O [Compound 94, (2R,3S,4R,5S,6R)-2-[2-[3-(2-hydroxyethyl)-4-[2-[(2R,3S,4R,5S,6R)-3,4,5-trihydroxy-6-(hydroxymethyl)tetrahydropyran-2-yl]ethynyl]phenyl]ethynyl]-6-(hydroxymethyl)tetrahydropyran-3,4,5-triol] | 20 nM
CCCn1c2cc(C#C[C@H]3O[C@H](CO)[C@@H](O)[C@H](O)[C@@H]3O)ccc2c2ccc(C#C[C@H]3O[C@H](CO)[C@@H](O)[C@H](O)[C@@H]3O)cc21 [Compound 110, (2R,3S,4R,5S,6R)-2-(hydroxymethyl)-6-[2-[9-propyl-7-[2-[(2R,3S,4R,5S,6R)-3,4,5-trihydroxy-6-(hydroxymethyl)tetrahydropyran-2-yl]ethynyl]carbazol-2-yl]ethynyl]tetrahydropyran-3,4,5-triol] | 0.89 nM
CC1(Cn2c3cc(C#C[C@H]4O[C@H](CO)[C@@H](O)[C@H](O)[C@@H]4O)ccc3c3ccc(C#C[C@H]4O[C@H](CO)[C@@H](O)[C@H](O)[C@@H]4O)cc32)COC1 [Compound 186] | 0.28 nM
OCC(O)Cn1c2ccc(C#C[C@H]3O[C@H](CO)[C@@H](O)[C@H](O)[C@@H]3O)cc2c2cc(C#C[C@H]3O[C@H](CO)[C@@H](O)[C@H](O)[C@@H]3O)ccc21 (stereo partly drawn) [Compound 174, (2R,3S,4R,5S,6R)-2-[2-[9-(2,3-dihydroxypropyl)-6-[2-[(2R,3S,4R,5S,6R)-3,4,5-trihydroxy-6-(hydroxymethyl)tetrahydropyran-2-yl]ethynyl]carbazol-3-yl]ethynyl]-6-(hydroxymethyl)tetrahydropyran-3,4,5-triol] | 4.7 nM
OC[C@H]1O[C@H](C#Cc2ccc3c(c2)sc2cc(C#C[C@H]4O[C@H](CO)[C@@H](O)[C@H](O)[C@@H]4O)ccc23)[C@@H](O)[C@@H](O)[C@@H]1O [Compound 109, (2R,3S,4R,5S,6R)-2-(hydroxymethyl)-6-[2-[7-[2-[(2R,3S,4R,5S,6R)-3,4,5-trihydroxy-6-(hydroxymethyl)tetrahydropyran-2-yl]ethynyl]dibenzothiophen-3-yl]ethynyl]tetrahydropyran-3,4,5-triol] | 20 nM
OC[C@H]1O[C@H](C#Cc2cc(F)c(C#C[C@H]3O[C@H](CO)[C@@H](O)[C@H](O)[C@@H]3O)c(F)c2)[C@@H](O)[C@@H](O)[C@@H]1O [Compound 93, (2R,3S,4R,5S,6R)-2-[2-[3,5-difluoro-4-[2-[(2R,3S,4R,5S,6R)-3,4,5-trihydroxy-6-(hydroxymethyl)tetrahydropyran-2-yl]ethynyl]phenyl]ethynyl]-6-(hydroxymethyl)tetrahydropyran-3,4,5-triol] | 88 nM
